Earlier results, collected in patent US20190175510A1, “PHARMACEUTICAL MATRIX FORMULATIONS COMPRISING DIMETHYL FUMARATE” (BIOGEN MA INC., priority 2014, published 2019).
Counter-ions that a name gives are not always drawn.

Settings: species not stated

half-life of MMF: approximately 1 hour
Compound: COC(=O)/C=C/C(=O)O [MMF, monomethyl fumarate]
